Measurements reported in patent US20040106802A1, “Novel compounds and therapeutic uses thereof” (TORRENT PHARMACEUTICALS LTD., priority 2002, published 2004).
Read-outs that look alike come from different tables or passages of the source.

Tests used:
Porcine DPP-IV = target: T1, Porcine DPP-IV (Sus scrofa, UniProt P22411); experiment: Assay of DPP-IV enzyme inhibitory activity (spectrophotometric, Gly-Pro-pNA cleavage); type: biochemical
T1 construct: purchased Sigma-Aldrich Germany

[1] = In-vitro free radical scavenging activity using DPPH free radical; conditions: 30° C., 30 minutes, 515 nm
Description: Free Radical Scavenging Activity:
To determine the in-vitro free radical scavenging activity of compounds of general formula-I on 2,2,-diphenyl-1-picrylhydrazyl (DPPH)radical (Ref: W. Brand-Williams, M. E. Cuvelier, C. Berset “Use of a free radical method to evaluate antioxidant activity”, Lebensm.- Wiss.u.Technol.,1995,28,Nr.1:25-30).
To evaluate the free radical scavenging activity of compounds they are allowed to react with stable radical DPPH*. In its radical form, DPPH* absorbed at the characteristic wave length of 515 nm, but upon reduction by an antioxidant or radical scavenger (AH), the absorption disappears.
10^−4M solution of DPPH* was prepared in methanol.
Various concentrations (10 mM, 1 mM, 0.5 mM, 0.25 mM and 0.125 mM) of drug solutions were prepared in methanol.
900 μl of DPPH radical solution was added to an eppendorf tube. To it was added 100 μl of methanol.
900 μl of DPPH radical solution was added to an eppendorf tube. To it was added 100 μl of various concentrations of drug solutions in methanol.
The absorbance of control and test samples was recorded after incubation at 30° C. for 30 minutes, at 515 nm taking methanol as blank.
The percent antioxidant activity was calculated according to the formula:
% Antioxidant activity=100−[O.D of test sample/O.D of control*100]

[2] = Porcine DPP-IV, Gly-Pro-pNA substrate, 30° C., mean ± SD of three experiments except compound Nos. 133 & 139, read-out: IC50 (μM) Mean ± SD, inhibitory activity on DPP-IV enzyme activity
[3] = read-out: dipeptidyl peptidase-IV inhibitory IC50's in the range

T1 sequence (P22411 whole entry): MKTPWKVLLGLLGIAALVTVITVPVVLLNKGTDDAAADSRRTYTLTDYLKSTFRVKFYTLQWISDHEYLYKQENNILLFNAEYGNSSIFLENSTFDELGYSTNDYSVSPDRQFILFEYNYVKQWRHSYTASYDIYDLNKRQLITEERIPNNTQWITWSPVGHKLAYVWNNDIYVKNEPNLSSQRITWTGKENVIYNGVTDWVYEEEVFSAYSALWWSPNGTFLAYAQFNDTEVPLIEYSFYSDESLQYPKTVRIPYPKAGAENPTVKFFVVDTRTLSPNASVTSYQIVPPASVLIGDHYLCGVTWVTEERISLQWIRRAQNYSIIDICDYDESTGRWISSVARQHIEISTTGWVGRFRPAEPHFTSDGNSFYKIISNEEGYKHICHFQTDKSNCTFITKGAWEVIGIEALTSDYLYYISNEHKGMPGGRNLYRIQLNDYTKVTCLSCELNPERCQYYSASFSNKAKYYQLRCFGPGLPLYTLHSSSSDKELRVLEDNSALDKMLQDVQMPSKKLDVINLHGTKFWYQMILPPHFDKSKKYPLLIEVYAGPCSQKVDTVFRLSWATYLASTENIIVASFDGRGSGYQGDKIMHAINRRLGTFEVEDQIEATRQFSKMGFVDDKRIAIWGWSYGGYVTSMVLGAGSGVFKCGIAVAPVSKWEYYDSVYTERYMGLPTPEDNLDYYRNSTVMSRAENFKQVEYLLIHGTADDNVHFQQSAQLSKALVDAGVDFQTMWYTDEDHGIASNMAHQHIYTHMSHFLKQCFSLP

| SMILES | IC50 (Porcine DPP-IV; [2]) | % Activity (antioxidant, DPPH) ([1]; Concentration 100 μM) | % Activity (antioxidant, DPPH) ([1]; Concentration 12.5 μM) | % Activity (antioxidant, DPPH) ([1]; Concentration 25 μM) | % Activity (antioxidant, DPPH) ([1]; Concentration 50 μM) | % Activity (antioxidant, DPPH) ([1]; Concentration 100 μM, 100 µM) | % Activity (antioxidant, DPPH) ([1]; Concentration 12.5 μM, 12.5 µM) | % Activity (antioxidant, DPPH) ([1]; Concentration 25 μM, 25 µM) | % Activity (antioxidant, DPPH) ([1]; Concentration 50 μM, 50 µM) | IC50 (Porcine DPP-IV; [3]) |
| --- | --- | --- | --- | --- | --- | --- | --- | --- | --- | --- |
| N#CC1CSCN1C(=O)CN(N)C1CCCCC1.O=C(O)C(F)(F)F (stereo not drawn) [Compound No. 21, 3-[1-Oxo-2-((1-Cyclohexyl)-hydrazino)]ethyl-4-cyano thiazolidine trifluoroacetate] | 2.01 ± 0.16 µM | 95.71% | – | – | – | – | – | – | – | – |
| N#CC1CSCN1C(=O)CN(N)C1CCN(CC(=O)Nc2ccc3c(c2)OCO3)CC1 (stereo not drawn) [compound 130, 3-[1-oxo-2-(1-(1-(2-oxo-2-(3,4-methelenedioxyphenyl)aminoethyl)piperidine-4-yl))hydrazino]ethyl-4-cyanothiazolidine, bis-trifluoroacetate] | 0.24 ± 0.025 µM | 56.37% | – | – | – | – | – | – | – | – |
| N#CC1CSCN1C(=O)CN(N)C1CCN(CC(=O)Nc2ccc(S(N)(=O)=O)cc2)CC1 (stereo not drawn) [compound 131, 3-[1-oxo-2-(1-(1-(2-oxo-2-(4-aminosulphonylphenyl)aminoethyl)piperidin-4-yl))hydrazino]ethyl-4-cyanothiazolidine, bis-trifluoroacetate] | 0.0985 ± 0.012 µM | 57.73% | – | – | – | – | – | – | – | – |
| COc1ccc(S(=O)(=O)N2CCC(N(N)CC(=O)N3CSCC3C#N)CC2)cc1.O=C(O)C(F)(F)F (stereo not drawn) [Compound No. 91, 3-[1-oxo-2-[1-(1-(4-methoxyphenylsulphonyl)-piperidin-4-yl)]hydrazino]ethyl-4-cyanothiazolidine trifluoroacetate] | 6.7 ± 0.4 µM | 85.69% | 17.16% | 38.11% | 58.87% | – | – | – | – | – |
| CS(=O)(=O)N1CCC(N(N)CC(=O)N2CSCC2C#N)CC1.O=C(O)C(F)(F)F (stereo not drawn) [Compound No. 86, 3-[1-oxo-2-[1-(1-(methylsulphonyl)-piperidin-4-yl)]hydrazino]ethyl-4-cyanothiazolidine trifluoroacetate] | 1.46 ± 0.22 µM | 88.14% | 22.72% | 45.27% | 70.18% | – | – | – | – | – |
| COc1ccc(S(=O)(=O)NC2CCC(N(N)CC(=O)N3CSCC3C#N)CC2)cc1.O=C(O)C(F)(F)F (stereo not drawn) [Compound No. 92, 3-[1-oxo-2-[1-(1-(4-methoxyphenylsulphonyl)aminocyclohexan-4-yl)]hydrazino]ethyl-4-cyanothiazolidine trifluoroacetate] | 1.33 ± 0.124 µM | 78.77% | 10.07% | 30.36% | 58.48% | – | – | – | – | – |
| CCNN(CC(=O)N1CSCC1C#N)C1CCN(S(C)(=O)=O)CC1.O=C(O)C(F)(F)F (stereo not drawn) [Compound No. 88, 3-[1-oxo-2-[1-(1-(methylsulphonyl)-piperidin-4-yl)-2-ethyl]hydrazino]ethyl-4-cyanothiazolidine trifluoroacetate] | 3.75 ± 0.101 µM | 69.34% | 14.49% | 44.12% | 56.11% | – | – | – | – | – |
| N#Cc1ccc(NC(=O)CN2CCC(N(N)CC(=O)N3CSCC3C#N)CC2)nc1 (stereo not drawn) [compound 120, 3-[1-oxo-2-(1-(1-(2-oxo-2(5-cyanopyridin-2-yl)aminoethyl)piperidin-4-yl))hydrazino]ethyl-4-cyanothiazolidine, tris-trifluoroacetate] | 0.09 ± 0.02 µM | 55.03% | – | – | – | – | – | – | – | – |
| CC1CCC(N(N)CC(=O)N2CSCC2C#N)CC1.O=C(O)C(F)(F)F (stereo not drawn) [Compound No. 25, 3-[1-Oxo-2-((1-(4-methyl)cyclohexyl)hydrazino)]ethyl-4-cyano thiazolidine trifluoroacetate] | 0.67 ± 0.03 µM | – | – | – | – | 95.66% | – | – | – | – |
| N#CC1CSCN1C(=O)CN(N)C1CCN(CC(=O)Nc2ncccn2)CC1 (stereo not drawn) [Compound No. 106, 3 [2-oxo-2-[1-(1-(2-oxo-2(pyrimidin-2-yl)aminoethyl)piperidin-4-yl)]hydrazino]ethyl-4-cyanothiazolidine tris-trifluoroacetate] | 0.143 ± 0.02 µM | 72.86% | 24.86% | 42.52% | 70.39% | – | – | – | – | – |
| CC(C)(C)C(=O)NC1CCC(N(N)CC(=O)N2CSCC2C#N)CC1.O=C(O)C(F)(F)F (stereo not drawn) [Compound No. 98, 3-[1-oxo-2-[(1-(trimethylacetamido)cyclohexan-4-yl)]hydrazino]ethyl-4-cyanothiazolidine trifluoroacetate] | 0.71 ± 0.01 µM | – | – | – | – | 73.35% | 21.99% | 40.77% | 59.21% | – |
| CC(C)NN(CC(=O)N1CSCC1C#N)C1CCN(S(C)(=O)=O)CC1.O=C(O)C(F)(F)F (stereo not drawn) [Compound No. 87, 3-[1-oxo-2-[1-(1 (methylsulphonyl)-piperidin-4-yl)-2-isopropyl]hydrazino]ethyl-4-cyanothiazolidine trifluoroacetate] | 18.3 ± 3.2 µM | 55.94% | 12.87% | 30.88% | 44.03% | – | – | – | – | – |
| N#CC1CSCN1C(=O)CN(N)C1CCN(CC(=O)Nc2ccc(C(F)(F)F)cc2)CC1 (stereo not drawn) [Compound No. 102, 3-[1-oxo-2-[-1-(1-(2-oxo-2(4-trifluorophenyl)aminoethyl)piperidin-4-yl)]hydrazino]ethyl-4-cyanothiazolidine bis-trifluoroacetate] | 0.308 ± 0.06 µM | 50.15% | 20.90% | 29.56% | 34.26% | – | – | – | – | – |
| N#CC1CSCN1C(=O)CN(N)C1CCN(Cc2ccc(F)cc2)CC1 (stereo not drawn) [Compound No. 94, 3-[1-oxo-2-[1-(1-(4-fluorobenzyl)-piperidin-4-yl)]hydrazino]ethyl-4-cyanothiazolidine bis-trifluoroacetate] | 2.23 ± 0.08 µM | 55.85% | 9.34% | 24.05% | 39.04% | – | – | – | – | – |
| N#CC1CSCN1C(=O)CN(N)C1CCN(CC(=O)NC2CC2)CC1 (stereo not drawn) [Compound No. 108, 3[1-oxo-2-[1-(1-(2-oxo-2-(cyclopropyl)aminoethyl)piperidin-4-yl)]hydrazino]ethyl-4-cyanothiazolidine bis-trifluoroacetate] | 0.236 ± 0.025 µM | 52.72% | 20.19% | 26.25% | 34.71% | – | – | – | – | 0.088 to 0.25 µM |
| N#Cc1ccc(NC(=O)CN2CCC(N(N)CC(=O)N3CSCC3C#N)CC2)cc1 (stereo not drawn) [Compound No. 99, 3-[1-oxo-2-[1-(1-(2-oxo-2-(4-cyanophenyl)aminoethyl)piperidin-4-yl)]hydrazino]ethyl-4-cyanothiazolidine bis-trifluoroacetate] | 0.2 ± 0.04 µM | 53.33% | 15.12% | 24.87% | 39.13% | – | – | – | – | 0.088 to 0.25 µM |
| Cc1nc(NC(=O)CN2CCC(N(N)CC(=O)N3CSCC3C#N)CC2)sc1C (stereo not drawn) [compound 119, 3-[1-oxo-2-(1-(1-(2-oxo-2-(4,5-dimethylthiazole-2-yl)aminoethyl)piperidin-4-yl)) hydrazino]ethyl-4-cyanothiazolidine, tris-trifluoroacetate] | 0.185 ± 0.01 µM | 54.93% | – | – | – | – | – | – | – | – |
